According to ChEMBL document CHEMBL1201862, “PubChem BioAssay data set” (2004):
Calls of active or inactive are those of the source.

Tests used:
[1] = molecular target: Peroxisome proliferator-activated receptor gamma/Nuclear receptor coactivator 1 (Homo sapiens, UniProt P37231); experiment: (§1) TR-FRET dose response biochemical High Throughput Screening assay for agonists of the steroid receptor coactivator 1 (SRC-1) recruitment by the peroxisome proliferator-activated receptor gamma (PPAR gamma): non-selective agonists. [Related pubchem assays (depositor defined):AID1300, AID1808, AID504735, AID631]; assay type: protein assay
[2] = molecular target: Peroxisome proliferator-activated receptor gamma/Nuclear receptor coactivator 3 (Homo sapiens, UniProt P37231); experiment: as §1, with “3 (SRC-3)” for “1 (SRC-1)”, “assays: 1301 (Confirmation screen.), 1048 (Primary screen.)]” for “assays (depositor defined):AID1300, AID1808, AID504735, AID631]”; assay type: functional
[3] = molecular target: Peroxisome proliferator-activated receptor gamma/Nuclear receptor coactivator 2 (Homo sapiens, UniProt P37231); experiment: TR-FRET dose response biochemical High Throughput Screening assay for agonists of the steroid receptor coactivator 2 (SRC-2) recruitment by the peroxisome proliferator-activated receptor gamma (PPAR gamma): non-selective agonists. [Related pubchem assays: 1297, 1032 ]; assay type: functional
Cytochrome P450 2C9 = Cytochrome P450 2C9 (Homo sapiens, UniProt P11712)
[4] = molecular target: T1, Microphthalmia-associated transcription factor (Homo sapiens, UniProt O75030); experiment: TRPM1 promoter luciferase signal decrease, dose response, MITF inhibitor project, cell-based, SK-MEL-5, cherry-picked, set 3 (AID 493073); assay type: functional
T1 sequence (O75030 whole entry): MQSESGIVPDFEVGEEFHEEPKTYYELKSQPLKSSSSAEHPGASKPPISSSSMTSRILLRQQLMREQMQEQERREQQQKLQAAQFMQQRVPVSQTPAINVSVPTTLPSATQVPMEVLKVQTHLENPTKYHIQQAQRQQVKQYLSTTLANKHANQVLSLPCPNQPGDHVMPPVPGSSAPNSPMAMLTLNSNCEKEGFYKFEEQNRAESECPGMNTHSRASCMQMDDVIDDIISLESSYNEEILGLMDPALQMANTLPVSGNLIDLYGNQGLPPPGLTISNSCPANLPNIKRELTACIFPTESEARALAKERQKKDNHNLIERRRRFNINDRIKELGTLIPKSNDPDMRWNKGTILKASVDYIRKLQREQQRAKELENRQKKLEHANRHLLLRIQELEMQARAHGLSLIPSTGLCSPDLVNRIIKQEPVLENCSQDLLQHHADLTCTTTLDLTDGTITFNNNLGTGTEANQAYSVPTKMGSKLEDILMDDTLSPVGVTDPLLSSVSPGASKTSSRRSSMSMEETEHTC

[5] = molecular target: T2, Replicative DNA helicase DnaB (Mycobacterium tuberculosis, UniProt P9WMR3); experiment: DnaB intein splicing inhibitors, dose response, biochemical, cell-free fluorescence (AID 449749); assay type: functional
T2 sequence (P9WMR3 whole entry): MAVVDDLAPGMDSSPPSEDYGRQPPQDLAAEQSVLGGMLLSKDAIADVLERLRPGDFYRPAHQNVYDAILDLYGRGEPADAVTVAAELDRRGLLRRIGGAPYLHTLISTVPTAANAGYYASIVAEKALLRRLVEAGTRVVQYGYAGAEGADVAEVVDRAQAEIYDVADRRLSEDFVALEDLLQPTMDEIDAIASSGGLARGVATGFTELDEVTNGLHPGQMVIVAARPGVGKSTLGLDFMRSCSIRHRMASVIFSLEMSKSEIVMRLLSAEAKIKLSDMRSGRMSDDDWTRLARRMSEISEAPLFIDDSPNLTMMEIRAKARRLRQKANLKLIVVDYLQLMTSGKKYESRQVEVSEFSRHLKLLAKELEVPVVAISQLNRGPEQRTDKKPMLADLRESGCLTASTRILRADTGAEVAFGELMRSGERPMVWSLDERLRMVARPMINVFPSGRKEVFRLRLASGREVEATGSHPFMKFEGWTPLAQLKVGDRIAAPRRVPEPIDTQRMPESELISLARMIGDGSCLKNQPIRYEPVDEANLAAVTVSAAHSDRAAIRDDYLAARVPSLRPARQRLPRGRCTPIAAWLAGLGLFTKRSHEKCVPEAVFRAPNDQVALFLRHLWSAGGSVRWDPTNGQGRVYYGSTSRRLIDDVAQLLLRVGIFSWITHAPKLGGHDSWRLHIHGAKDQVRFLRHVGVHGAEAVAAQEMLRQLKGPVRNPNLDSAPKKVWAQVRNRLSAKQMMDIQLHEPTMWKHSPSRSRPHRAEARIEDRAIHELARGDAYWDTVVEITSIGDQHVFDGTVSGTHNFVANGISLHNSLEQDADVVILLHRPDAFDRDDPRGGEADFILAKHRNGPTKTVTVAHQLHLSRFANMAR

Protein RecA = molecular target: T3, Protein RecA (Mycobacterium tuberculosis, UniProt P9WHJ3); experiment: Fluorescence Cell-Free Homogeneous Dose Retest to Identify Inhibitors of RecA-Intein Splicing Activity. [Related pubchem assays (depositor defined):AID2097, AID2223, AID489010, AID492950]; assay type: functional
T3 sequence (P9WHJ3 whole entry): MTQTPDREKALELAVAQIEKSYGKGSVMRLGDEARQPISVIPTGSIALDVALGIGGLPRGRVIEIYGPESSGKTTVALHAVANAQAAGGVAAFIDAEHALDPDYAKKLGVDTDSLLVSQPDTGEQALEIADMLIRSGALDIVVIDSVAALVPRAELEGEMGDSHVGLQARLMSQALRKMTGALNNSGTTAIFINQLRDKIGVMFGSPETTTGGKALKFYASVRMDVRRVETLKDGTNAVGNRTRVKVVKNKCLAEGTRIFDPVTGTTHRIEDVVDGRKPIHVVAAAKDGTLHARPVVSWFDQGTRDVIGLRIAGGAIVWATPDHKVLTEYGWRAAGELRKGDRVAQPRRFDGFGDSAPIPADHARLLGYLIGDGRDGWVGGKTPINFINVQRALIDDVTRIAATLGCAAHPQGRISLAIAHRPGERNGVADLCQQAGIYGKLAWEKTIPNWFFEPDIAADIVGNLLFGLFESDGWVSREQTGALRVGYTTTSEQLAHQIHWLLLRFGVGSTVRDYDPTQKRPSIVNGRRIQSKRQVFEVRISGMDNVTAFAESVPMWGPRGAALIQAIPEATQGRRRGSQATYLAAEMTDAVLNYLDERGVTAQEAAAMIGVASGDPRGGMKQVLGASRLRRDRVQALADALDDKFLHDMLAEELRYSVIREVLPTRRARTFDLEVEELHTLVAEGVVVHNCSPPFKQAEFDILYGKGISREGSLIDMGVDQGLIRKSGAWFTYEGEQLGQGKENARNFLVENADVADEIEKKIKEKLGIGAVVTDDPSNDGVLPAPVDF

Fatty acid synthase [6] = molecular target: T4, Fatty acid synthase (Homo sapiens, UniProt P49327); experiment: FAS thioesterase domain inhibitors, dose response, biochemical, endpoint fluorescence intensity, uHTS hits (AID 624327); assay type: functional;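 note: fluorescence from hydrolysis of an O-methyl fluorescein acyl ester substrate by the enzyme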
Fatty acid synthase [7] = molecular target: T4, Fatty acid synthase; experiment: FAS thioesterase domain inhibitors, dose response, biochemical, kinetic fluorescence intensity (AID 624326); assay type: functional;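 note: rate of fluorescence rise from hydrolysis of a fluorogenic O-methyl fluorescein ester substrate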
HeLa = experiment: HeLa cell cytotoxicity, dose response, cytotoxicity control for MITF activator project, CellTiter-Glo luminescence, cherry-pick samples (AID 540259); assay type: functional, cell-based; conditions: Homo sapiens
HEK293 = experiment: inhibitors of LMP1-driven NF-kB reporter, dose response, cell-based, HEK293, luciferase, cherry-pick (AID 588343); assay type: functional; conditions: Homo sapiens
Cytochrome P450 3A4 [8] = molecular target: T5, Cytochrome P450 3A4 (Homo sapiens, UniProt P08684);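 note: CYP3A4 tested as one member of a cytochrome P450 panel screen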
[9] = inhibitors of intracellular T. cruzi replication, confirmation, NIH3T3 host cells, beta-gal luminescence (AID 2044); assay type: functional, cell-based;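 note: intracellular parasites grown in NIH/3T3 mouse fibroblasts as host cells; luminescent beta-galactosidase reporter signal from transgenic T. cruzi replicating inside host cells; inhibitors lower the luminescence signal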
[10] = cytotoxicity toward NIH3T3 fibroblasts, dose response, counter-screen, cell-based, ATP luminescence, mouse fibroblasts (AID 2010); assay type: functional;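 note: cells exposed to compound for about 90 hours before reading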
INS1 = experiment: beta cell apoptosis inhibitors, cytokine rescue, dose response, luminescence, retest (AID 449756); assay type: functional, cell-based; conditions: Rattus norvegicus;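 note: cell death triggered by IL-1 beta plus TNF-alpha plus IFN-gamma mixture; protective hits raise ATP signal compared with cytokine alone wells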
[11] = Shn3 3'UTR reporter inhibitors, dose response, cell-based, Clone20 osteoblasts, firefly luciferase, cherry-picked (AID 624132); assay type: functional;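 note: firefly luciferase luminescence from reporter carrying the Shn3 3'UTR in osteoblasts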
[12] = HepG2 cell cytotoxicity, dose response, cytotoxicity control for Shn3 inhibitor project, CellTiter-Glo, cherry-picked (AID 624134); assay type: functional, cell-based
[13] = control 3'UTR Renilla luciferase suppression, dose response, counter-screen for Shn3 inhibitor project, cell-based, Clone20-Shn3RL, cherry-picked (AID 624133); assay type: functional
Cytochrome P450 3A4 [14] = molecular target: T5, Cytochrome P450 3A4; remark: listed apart in the source
[15] = molecular target: 26S proteasome non-ATPase regulatory subunit 14 (Homo sapiens, UniProt O00487); experiment: inhibition of proteasome subunit RPN11 – biochemical, fluorescence polarization, uHTS hits, confirmation (AID 602368); assay type: functional
[16] = molecular target: 72 kDa type IV collagenase (Homo sapiens, UniProt P08253); experiment: Dose Response validation of uHTS RPN11 inhibitor hits using a MMP-2 Fluorescence assay.; assay type: functional
Prothrombin = Prothrombin (Bos taurus, UniProt P00735); experiment: thrombin inhibition, dose response, biochemical, fluorescence polarization, uHTS hits (AID 602369); assay type: functional
[17] = Luminescence Cell-Based Dose Confirmation HTS to Identify Activators of 5'UTR Stem-Loop Driven Alpha-Synuclein mRNA Translation in H4 Neuroglioblastoma Cells. [Related pubchem assays: 1829 (Project Summary), 1814 (Primary HTS)]; assay type: functional
[18] = Luminescence Cell-Based Dose Response HTS to Identify Activators of Luciferase Translation or Activity in H4 […] Cells. [Related pubchem assays: 1829 (Project Summary), 1814 (Primary HTS)]; assay type: functional
H4 = experiment: Luminescence Cell-Based Dose Response HTS to Identify Activators of 5'UTR Stem-Loop Driven Prion Protein mRNA Translation in H4 Neuroglioblastoma Cells. [Related pubchem assays: 1829 (Project Summary), 1814 (Primary HTS)]; assay type: functional; conditions: Homo sapiens
[19] = molecular target: Glucose-6-phosphate 1-dehydrogenase (Homo sapiens, UniProt P11413); experiment: human G6PD enzyme inhibitors, dose response, selectivity assay for P. falciparum G6PD inhibitor project, biochemical, fluorescence (AID 504792); assay type: functional

Cytochrome P450 2C9, sequence (P11712 whole entry): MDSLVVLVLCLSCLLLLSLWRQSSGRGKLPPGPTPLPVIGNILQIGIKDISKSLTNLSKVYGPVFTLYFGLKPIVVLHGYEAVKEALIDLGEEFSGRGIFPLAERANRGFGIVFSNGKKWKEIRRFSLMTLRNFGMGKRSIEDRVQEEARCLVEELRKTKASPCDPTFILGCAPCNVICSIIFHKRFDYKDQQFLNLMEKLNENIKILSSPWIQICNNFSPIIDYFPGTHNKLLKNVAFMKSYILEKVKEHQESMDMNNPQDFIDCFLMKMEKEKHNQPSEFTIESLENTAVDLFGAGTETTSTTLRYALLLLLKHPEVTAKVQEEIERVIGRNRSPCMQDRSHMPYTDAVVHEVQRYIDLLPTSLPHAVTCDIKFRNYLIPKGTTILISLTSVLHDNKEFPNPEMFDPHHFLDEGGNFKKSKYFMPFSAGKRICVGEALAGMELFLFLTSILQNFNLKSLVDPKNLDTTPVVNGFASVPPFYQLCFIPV
T4 sequence (P49327 whole entry, the tested form may be a part): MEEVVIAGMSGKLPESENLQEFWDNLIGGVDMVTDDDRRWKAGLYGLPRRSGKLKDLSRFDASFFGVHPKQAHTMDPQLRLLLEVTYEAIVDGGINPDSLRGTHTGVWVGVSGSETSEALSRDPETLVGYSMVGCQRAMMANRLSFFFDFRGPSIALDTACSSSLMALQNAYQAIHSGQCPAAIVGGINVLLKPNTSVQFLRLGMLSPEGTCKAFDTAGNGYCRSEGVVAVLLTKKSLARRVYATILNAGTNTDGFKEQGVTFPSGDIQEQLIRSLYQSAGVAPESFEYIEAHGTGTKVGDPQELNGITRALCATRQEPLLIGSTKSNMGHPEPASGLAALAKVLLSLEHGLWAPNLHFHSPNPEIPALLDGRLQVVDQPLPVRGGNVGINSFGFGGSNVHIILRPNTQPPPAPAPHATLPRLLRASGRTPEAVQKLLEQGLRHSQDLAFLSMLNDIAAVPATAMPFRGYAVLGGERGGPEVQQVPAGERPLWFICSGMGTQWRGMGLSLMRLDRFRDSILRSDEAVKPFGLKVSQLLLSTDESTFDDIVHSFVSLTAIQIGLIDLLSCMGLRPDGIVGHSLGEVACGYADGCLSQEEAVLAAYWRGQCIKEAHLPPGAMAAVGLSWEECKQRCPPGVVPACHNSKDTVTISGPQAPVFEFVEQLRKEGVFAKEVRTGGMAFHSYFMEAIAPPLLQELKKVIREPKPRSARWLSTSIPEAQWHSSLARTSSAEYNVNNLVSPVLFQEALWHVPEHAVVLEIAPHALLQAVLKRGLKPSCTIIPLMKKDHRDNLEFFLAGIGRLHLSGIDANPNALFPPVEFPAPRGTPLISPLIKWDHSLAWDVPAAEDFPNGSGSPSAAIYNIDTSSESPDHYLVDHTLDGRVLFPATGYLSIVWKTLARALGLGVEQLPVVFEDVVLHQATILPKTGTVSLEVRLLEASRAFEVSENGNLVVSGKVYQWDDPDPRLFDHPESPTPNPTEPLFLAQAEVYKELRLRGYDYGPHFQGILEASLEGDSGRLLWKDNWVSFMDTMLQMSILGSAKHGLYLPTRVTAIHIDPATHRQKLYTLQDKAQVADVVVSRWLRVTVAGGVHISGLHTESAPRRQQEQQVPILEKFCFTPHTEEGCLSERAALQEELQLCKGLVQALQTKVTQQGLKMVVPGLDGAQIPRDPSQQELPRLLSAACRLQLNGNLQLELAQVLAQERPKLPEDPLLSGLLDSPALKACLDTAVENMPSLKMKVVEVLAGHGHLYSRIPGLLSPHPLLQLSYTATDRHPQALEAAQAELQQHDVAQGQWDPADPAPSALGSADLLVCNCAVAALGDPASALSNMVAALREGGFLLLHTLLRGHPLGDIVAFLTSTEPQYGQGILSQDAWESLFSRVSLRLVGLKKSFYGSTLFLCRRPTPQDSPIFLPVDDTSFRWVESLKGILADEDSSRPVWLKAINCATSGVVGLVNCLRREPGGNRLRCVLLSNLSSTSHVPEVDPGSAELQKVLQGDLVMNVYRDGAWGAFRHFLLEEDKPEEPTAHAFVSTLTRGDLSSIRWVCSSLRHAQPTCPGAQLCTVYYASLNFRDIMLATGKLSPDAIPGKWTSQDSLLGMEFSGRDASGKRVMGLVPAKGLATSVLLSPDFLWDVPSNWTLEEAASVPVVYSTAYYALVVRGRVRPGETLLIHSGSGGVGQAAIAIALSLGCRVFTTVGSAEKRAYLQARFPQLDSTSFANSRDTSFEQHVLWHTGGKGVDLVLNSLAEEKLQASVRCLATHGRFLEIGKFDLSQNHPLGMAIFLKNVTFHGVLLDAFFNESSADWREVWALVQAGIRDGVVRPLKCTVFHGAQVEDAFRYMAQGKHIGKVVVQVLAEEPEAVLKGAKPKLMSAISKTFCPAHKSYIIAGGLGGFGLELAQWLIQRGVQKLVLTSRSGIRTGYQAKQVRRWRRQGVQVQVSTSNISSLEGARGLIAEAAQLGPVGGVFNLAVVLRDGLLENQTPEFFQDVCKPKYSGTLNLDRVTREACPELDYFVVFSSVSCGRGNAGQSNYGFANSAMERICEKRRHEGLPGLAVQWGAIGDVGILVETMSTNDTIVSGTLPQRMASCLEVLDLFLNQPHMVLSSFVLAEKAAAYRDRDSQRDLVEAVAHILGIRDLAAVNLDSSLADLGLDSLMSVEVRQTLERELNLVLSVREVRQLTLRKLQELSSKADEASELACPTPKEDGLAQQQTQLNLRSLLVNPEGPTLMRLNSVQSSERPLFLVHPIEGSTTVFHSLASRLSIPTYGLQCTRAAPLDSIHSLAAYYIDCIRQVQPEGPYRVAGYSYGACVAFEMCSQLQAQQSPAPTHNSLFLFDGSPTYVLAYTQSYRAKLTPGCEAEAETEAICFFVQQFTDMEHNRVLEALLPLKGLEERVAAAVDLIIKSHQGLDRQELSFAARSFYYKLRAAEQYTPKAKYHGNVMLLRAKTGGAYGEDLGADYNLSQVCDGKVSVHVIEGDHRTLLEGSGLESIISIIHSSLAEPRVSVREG
Peroxisome proliferator-activated receptor gamma/Nuclear receptor coactivator 3, sequence (P37231 whole entry): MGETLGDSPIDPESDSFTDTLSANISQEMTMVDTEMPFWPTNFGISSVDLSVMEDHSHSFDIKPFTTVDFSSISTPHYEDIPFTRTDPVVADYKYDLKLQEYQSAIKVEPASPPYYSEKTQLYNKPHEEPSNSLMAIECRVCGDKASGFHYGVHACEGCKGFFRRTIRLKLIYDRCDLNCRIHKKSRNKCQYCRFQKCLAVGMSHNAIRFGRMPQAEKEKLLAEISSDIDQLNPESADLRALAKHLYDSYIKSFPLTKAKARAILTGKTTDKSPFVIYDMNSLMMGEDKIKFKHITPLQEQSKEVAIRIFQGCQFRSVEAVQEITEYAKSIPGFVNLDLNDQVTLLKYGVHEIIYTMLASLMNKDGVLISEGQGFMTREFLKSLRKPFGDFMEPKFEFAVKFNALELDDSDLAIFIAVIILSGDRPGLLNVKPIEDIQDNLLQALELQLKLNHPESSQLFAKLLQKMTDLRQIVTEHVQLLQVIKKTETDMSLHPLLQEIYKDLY
Peroxisome proliferator-activated receptor gamma/Nuclear receptor coactivator 3, sequence (Q9Y6Q9 whole entry, further chain): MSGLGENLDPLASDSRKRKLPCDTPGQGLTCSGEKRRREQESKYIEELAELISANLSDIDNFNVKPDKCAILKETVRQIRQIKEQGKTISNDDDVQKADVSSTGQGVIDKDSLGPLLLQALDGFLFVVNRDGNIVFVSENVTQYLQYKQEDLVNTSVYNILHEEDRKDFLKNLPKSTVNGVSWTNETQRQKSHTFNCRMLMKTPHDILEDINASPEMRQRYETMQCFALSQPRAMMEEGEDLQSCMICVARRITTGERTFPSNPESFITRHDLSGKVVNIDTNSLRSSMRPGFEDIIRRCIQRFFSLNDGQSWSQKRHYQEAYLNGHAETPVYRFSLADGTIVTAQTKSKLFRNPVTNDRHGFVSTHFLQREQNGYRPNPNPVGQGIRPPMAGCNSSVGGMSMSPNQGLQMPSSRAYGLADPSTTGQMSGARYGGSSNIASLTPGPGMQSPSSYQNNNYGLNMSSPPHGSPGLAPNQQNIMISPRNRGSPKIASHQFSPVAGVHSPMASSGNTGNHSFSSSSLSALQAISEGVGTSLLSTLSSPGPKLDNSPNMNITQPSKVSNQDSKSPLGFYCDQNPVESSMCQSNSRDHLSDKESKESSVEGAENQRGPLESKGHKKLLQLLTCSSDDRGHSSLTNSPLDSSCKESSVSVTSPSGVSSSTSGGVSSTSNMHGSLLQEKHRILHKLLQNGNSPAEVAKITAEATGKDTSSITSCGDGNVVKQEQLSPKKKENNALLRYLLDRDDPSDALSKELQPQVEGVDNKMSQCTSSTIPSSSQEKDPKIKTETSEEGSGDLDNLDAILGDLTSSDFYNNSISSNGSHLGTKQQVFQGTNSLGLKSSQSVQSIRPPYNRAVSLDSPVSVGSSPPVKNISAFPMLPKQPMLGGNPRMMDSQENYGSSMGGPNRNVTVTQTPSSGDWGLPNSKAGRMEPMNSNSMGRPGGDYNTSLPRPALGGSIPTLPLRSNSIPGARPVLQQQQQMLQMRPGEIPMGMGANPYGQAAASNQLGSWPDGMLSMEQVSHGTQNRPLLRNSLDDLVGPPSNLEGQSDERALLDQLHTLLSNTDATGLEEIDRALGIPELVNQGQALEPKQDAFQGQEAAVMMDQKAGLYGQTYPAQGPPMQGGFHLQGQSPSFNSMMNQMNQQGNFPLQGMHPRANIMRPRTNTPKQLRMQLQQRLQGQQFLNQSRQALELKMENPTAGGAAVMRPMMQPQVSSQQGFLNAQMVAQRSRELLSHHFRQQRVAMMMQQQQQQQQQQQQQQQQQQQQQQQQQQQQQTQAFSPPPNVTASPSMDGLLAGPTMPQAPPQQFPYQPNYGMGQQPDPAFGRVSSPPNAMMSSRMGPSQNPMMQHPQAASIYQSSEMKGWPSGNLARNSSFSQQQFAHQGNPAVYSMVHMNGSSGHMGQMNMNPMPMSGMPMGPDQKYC

With `O=c1c2c(-c3cccs3)csc2[nH]c(=S)n1-c1ccccc1` the EC50 [1] was 12.8 µM (inactive), the EC50 [2] was > 79.4 µM (not active) and the EC50 [3] was 11.6 µM (not active). For the same compound, the AC50 (Cytochrome P450 2C9) was 8.91 µM (inconclusive).
In the case of `CC(=O)N(C1CC(C)C(C#N)(C#N)C1(C#N)C#N)N(C)C` (configuration not stated), the AC50 [4] is reported as 9.24 µM (active), the AC50 [5] is reported as 1.68 µM (active) and the EC50 (Protein RecA) is reported as 3.17 µM (active). The IC50 (Fatty acid synthase [6]) was 8.68 µM (active) and the IC50 (Fatty acid synthase [7]) was 6.1 µM (active).
For `Cc1cc(C(=O)OCC(=O)c2ccc(Br)s2)c(C)o1`, the EC50 [1] was > 79.4 µM (inactive), the EC50 [2] was > 79.4 µM (not active) and the EC50 [3] was 14.6 µM (not active).
For `CC(C)(C)C(=O)c1cnc(Nc2ccccc2Cl)s1`, the AC50 (HeLa) was 121 µM (active).
With `CC1CCN(C(=O)/C(=C\c2cccs2)NC(=O)c2ccccc2)CC1` the AC50 (HEK293) was > 350 µM (inactive).
With `N#Cc1cc(C#N)c(N2CCN(c3ccccn3)CC2)nc1N` the AC50 (HeLa) was 31.7 µM (active).
For `O=C1CCCc2ccccc2N1Cc1cccc(Cl)c1`, the AC50 (Cytochrome P450 3A4 [8]) was “inconclusive”.
For `O=C(Nc1ccc(-c2nc3ccccc3o2)cc1)c1ccc(N2CCOCC2)c([N+](=O)[O-])c1`, the EC50 [9] was 1.93 µM (active), the EC50 [10] was > 60 µM (not active) and the AC50 (INS1) was 5.18 µM (active). The AC50 [11] was 3.35 µM (active), the AC50 [12] was > 70 µM (inactive) and the AC50 [13] was 3.62 µM (active). The AC50 (Cytochrome P450 3A4 [14]) was 11.2 µM (inconclusive) and the AC50 (Cytochrome P450 2C9) was 2.82 µM (inconclusive).
With `Cc1cccc2sc(NC(=O)C3CCCN(S(=O)(=O)c4cccc5nonc45)C3)nc12` (configuration not stated) the IC50 [15] was 25.9 µM (active), the IC50 [16] was > 100 µM (inactive) and the IC50 (Prothrombin) was 26.2 µM (active).
With `CC(=O)c1sc(N/N=C/c2cccc(O)c2)nc1C` the EC50 [17] was 6.61 µM (active), the EC50 [18] was 8.4 µM (active) and the EC50 (H4) was 23.2 µM (active). For the same compound, the AC50 (HeLa) was 77.2 µM (active).
For `Cc1cc(SCC(=O)N/N=C/c2ccco2)nc2ccccc12`, the IC50 [19] was 57.4 µM (inactive).
